Assay results published in patent US8431341B2, “Compositions and methods for the identification of inhibitors of protein synthesis” (priority 2006, dated 2013).
[5mC] = 5-methylcytosine; m = 2'-O-methyl; r = 2'-OH (RNA)

Test system: fluorescent peptide that mimics phenylalanine synthetase
Experiment: Binding of yeast tRNAPhe ASL RNA oligomers to a phenylalanine synthetase peptide mimic
Conditions: compared with the native RNA oligomer or the unmodified RNA oligomer; FIG. 2
Description: A set of experiments was conducted to identify an RNA oligomer substrate to be used in an assay to identify substrates for use in identifying inhibitors of tRNA binding to a phenylalanine synthetase from yeast. A peptide was first identified for use as a phenylalanine synthetase mimic. The peptide was labeled with a fluorescent peptide for use in detection in binding assays.
A series of RNA oligomer substrates were also synthesized containing modified nucleotides (FIG. 2).
To determine binding affinity, an assay of ASL for yeast tRNA^phe was prepared varying only in the number of post-transcriptional nucleotide base modifications. This array was probed using a peptide from a phage display library that bound to an ASL containing 3 modifications. The affect of modification on the affinity of a peptide to an RNA substrate-sequence (Sequence A in FIG. 2: 5′-CCAGACUGAAGAUCUGG) (SEQ ID NO: 18) is the primary unmodified yeast ASL^Phe. Sequence B in FIG. 2 (5′-CCAGACmUGm AAGAUm^5CUGG) (SEQ ID NO: 19) is a template ASL sequence indicating the locations of the modified nucleotides for the various combinations of modified nucleotide bases in the mimics of the anticodon stem loop. Sequence C in FIG. 2 (5′-CCAGACmUGmAAm1GAΨm^5CUGG) (SEQ ID NO: 20) is the sequence of the native yeast tRNA^phe. […]

5′-CCAGACmUGm AAGAUm^5CUGG (CCAGACUGAAGAUCUGG; sugars from the 5' end r5 m1 r1 m1 r9, [5mC] at 14, backbone not given here; listed as Yersinia enterocolitica)
affinity for a fluorescent peptide that mimics phenylalanine synthetase: greater affinity
